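Assay format: 96-well plates, 48-hour exposure. The concentration for 50% growth inhibition is given as GI50.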 Calls of active or inactive are those of the source. Cut-off read from the data, not from the text of the source: active = GI50 up to about 1.1 µM and inactive = higher.

The text below walks through data of ChEMBL document CHEMBL1201862, “PubChem BioAssay data set” (2004).

Some test systems named below: SN12C; Malme-3M; SF-539; SF-268; LOX IMVI; HCT-15; 786-0; MOLT-4; NCI-H460; UO-31; NCI-H23; RXF 393; U-251; CAKI-1; TK-10; SK-MEL-5; UACC-62; SNB-75; MDA-MB-231.
What all share (assay): NCI tumour cell line growth inhibition, 48 h

In the case of `O=C(Nc1ccccc1C(=O)O)C(=O)C(C(=O)c1ccccc1-c1ccccc1)C1OC(=O)c2ccccc21` (stereo not drawn), the GI50 in the experiment with SN12C is 17.1 µM (inactive); in the experiment on Malme-3M it was 12.2 µM (inactive); in the experiment with SF-539, 16.6 µM (inactive); in the experiment with SF-268, 16.8 µM (inactive); with LOX IMVI, 18.7 µM (inactive); in the experiment with HCT-15 it was 16.5 µM. The GI50 in the experiment with 786-0 is 18 µM (inactive); in the experiment on MOLT-4 it was 21.8 µM (inactive); in the experiment with NCI-H460, 17.8 µM (inactive); in the experiment with UO-31, 18 µM (inactive); with NCI-H23 it was 22.8 µM (inactive); in the experiment with RXF 393, 13.6 µM (inactive). Also, the GI50 in the experiment with U-251 is 15.4 µM (inactive); in the experiment on CAKI-1 it was 36 µM (inactive); with TK-10, 13.9 µM (inactive); in the experiment with SK-MEL-5, 19.2 µM (inactive); in the experiment on UACC-62, 16.6 µM (inactive); in the experiment on SNB-75 it was 25.1 µM (inactive).
On to `Nc1ncnc2c1ncn2C1OC(CSCC(F)(F)F)C(O)C1O` (stereo not drawn), for which the GI50 is > 100 µM (inactive) in the experiment with SN12C; > 100 µM (inactive) with Malme-3M; > 100 µM (inactive) in the experiment with SF-539; > 100 µM (inactive) in the experiment on SF-268; > 100 µM (inactive) in the experiment with LOX IMVI; above 100 µM with HCT-15. Besides, the GI50 in the experiment with 786-0, in the experiment with MOLT-4, in the experiment with NCI-H460, in the experiment on UO-31, with NCI-H23 and with RXF 393 was > 100 µM (inactive) in each case. Moreover, the GI50 in the experiment on U-251, with CAKI-1, with TK-10, in the experiment with SK-MEL-5, in the experiment with UACC-62 and with SNB-75 was > 100 µM (inactive) each time.
Turning to `CC(N)Cc1ccc(C(=O)Cl)cc1` (stereo not drawn), the GI50 in the experiment with SN12C is > 100 µM (inactive); in the experiment with Malme-3M, > 100 µM (inactive); with SF-539 it was > 100 µM (inactive); with SF-268 it was > 100 µM (inactive); with LOX IMVI, > 100 µM (inactive); in the experiment with HCT-15, above 100 µM. In addition, the GI50 in the experiment on 786-0, in the experiment with MOLT-4, with NCI-H460, with NCI-H23, in the experiment on RXF 393 and with U-251 was > 100 µM (inactive) each time. The GI50 with CAKI-1, in the experiment with TK-10, in the experiment with SK-MEL-5, in the experiment with UACC-62 and with SNB-75 was > 100 µM (inactive) throughout.
With `c1ccc2cc3[s+]snc3cc2c1`, the GI50 in the experiment with SN12C was > 100 µM (inactive); with Malme-3M, > 100 µM (inactive); in the experiment with SF-539 it was > 100 µM (inactive); with SF-268, > 100 µM (inactive); with LOX IMVI, > 100 µM (inactive); in the experiment with HCT-15, above 100 µM. Moreover, the GI50 in the experiment with 786-0, in the experiment on MOLT-4, in the experiment with NCI-H460, with UO-31, with NCI-H23 and in the experiment with RXF 393 was > 100 µM (inactive) each time. The GI50 is 85.9 µM (inactive) in the experiment on U-251; > 100 µM (inactive) with CAKI-1; > 100 µM (inactive) with TK-10; 97.9 µM (inactive) in the experiment with SK-MEL-5; > 100 µM (inactive) with UACC-62; > 100 µM (inactive) in the experiment with SNB-75.
`Nc1ccn(CCOC(=O)c2ccccc2)c(=O)n1`: the GI50 in the experiment on SN12C was > 100 µM (inactive); in the experiment on Malme-3M it was > 100 µM (inactive); in the experiment on SF-539 it was > 100 µM (inactive); in the experiment with SF-268 it was > 100 µM (inactive); with LOX IMVI, > 100 µM (inactive); with HCT-15, above 100 µM. For the same compound, the GI50 with 786-0, with NCI-H460, in the experiment with UO-31, with RXF 393, in the experiment on U-251 and in the experiment on CAKI-1 was > 100 µM (inactive) each time. The GI50 in the experiment with TK-10, in the experiment on SK-MEL-5, with UACC-62 and in the experiment with SNB-75 was > 100 µM (inactive) throughout.
With `CCC(C(=O)C(=O)C(CC)P1(=O)OC(C)(C)CN1C(C)(C)C)P1(=O)OC(C)(C)CN1C(C)(C)C` (stereo not drawn), the GI50 with SN12C is > 100 µM (inactive); with SF-539, > 100 µM (inactive); with SF-268, > 100 µM (inactive); in the experiment on LOX IMVI it was > 100 µM (inactive); with HCT-15, above 100 µM; in the experiment with 786-0, > 100 µM (inactive). Further, the GI50 with MDA-MB-231 is > 100 µM (inactive); in the experiment with MOLT-4 it was 22.2 µM (inactive); in the experiment with NCI-H460 it was > 100 µM (inactive); in the experiment with UO-31, > 100 µM (inactive); in the experiment with NCI-H23, > 100 µM (inactive); in the experiment with RXF 393 it was > 100 µM (inactive). The GI50 is > 100 µM (inactive) with U-251; > 100 µM (inactive) with CAKI-1; > 100 µM (inactive) in the experiment with TK-10; > 100 µM (inactive) with SK-MEL-5; > 100 µM (inactive) with UACC-62; 49.7 µM (inactive) with SNB-75.
As to `COC(=O)Cc1cc(=O)n2c3ccccc3n(C)c2c1C#N`, the GI50 in the experiment on SN12C was > 100 µM (inactive); in the experiment with Malme-3M it was > 100 µM (inactive); in the experiment on SF-539, > 100 µM (inactive); with SF-268, > 100 µM (inactive); in the experiment on LOX IMVI, > 100 µM (inactive); with HCT-15 it was above 100 µM. Besides, the GI50 in the experiment with 786-0, in the experiment with MOLT-4, with NCI-H460, in the experiment with UO-31, with NCI-H23 and in the experiment on RXF 393 was > 100 µM (inactive) in each case. In addition, the GI50 in the experiment with U-251 is > 100 µM (inactive); in the experiment on CAKI-1, > 100 µM (inactive); in the experiment on TK-10 it was > 100 µM (inactive); in the experiment on SK-MEL-5 it was 52.2 µM (inactive); in the experiment with SNB-75 it was 68.7 µM (inactive).
Consider `CC(C)(C)c1ccnc(/N=C2\N/C(=N\c3cc(C(C)(C)C)ccn3)c3ccccc32)c1`, for which the GI50 is > 100 µM (inactive) with SN12C; 24.8 µM (inactive) in the experiment on Malme-3M; 67.1 µM (inactive) in the experiment on SF-539; 16.3 µM (inactive) in the experiment with SF-268; 35.9 µM (inactive) in the experiment with LOX IMVI; 24.3 µM in the experiment with HCT-15. Besides, the GI50 in the experiment with 786-0 was 19.3 µM (inactive); in the experiment on MOLT-4, 7.14 µM (inactive); in the experiment on NCI-H460 it was 38.7 µM (inactive); in the experiment on UO-31, 32 µM (inactive); in the experiment on NCI-H23, 30.7 µM (inactive); with RXF 393, 22.3 µM (inactive). Also, the GI50 in the experiment on U-251 is 26.1 µM (inactive); with CAKI-1 it was 26.6 µM (inactive); in the experiment with TK-10, 21.4 µM (inactive); with UACC-62, 50.1 µM (inactive); in the experiment on SNB-75 it was > 100 µM (inactive).
With `CCCCOCc1cc(CN2CCN(C)CC2)c(O)c2ncccc12`, the GI50 with SN12C was 21.9 µM (inactive); with Malme-3M, 21.3 µM (inactive); with SF-539, 19.4 µM (inactive); in the experiment with SF-268 it was 16.2 µM (inactive); with LOX IMVI, 22.1 µM (inactive); with HCT-15 it was 2.77 µM. For the same compound, the GI50 with 786-0 was 14.6 µM (inactive); in the experiment with MOLT-4 it was 4.79 µM (inactive); in the experiment on NCI-H460, 7.46 µM (inactive); in the experiment with UO-31, 9.66 µM (inactive); in the experiment on NCI-H23, 14.5 µM (inactive); with RXF 393, 36.6 µM (inactive). The GI50 in the experiment with U-251 is 12.5 µM (inactive); with CAKI-1, 24.6 µM (inactive); in the experiment on TK-10, > 100 µM (inactive); in the experiment with SK-MEL-5, 4.02 µM (inactive); in the experiment on UACC-62, 13.9 µM (inactive); in the experiment on SNB-75, 52.7 µM (inactive).
Take `Brc1cccc(Nc2nc(-c3cccs3)nc3ccc(Br)cc23)c1`: the GI50 in the experiment on SN12C is 22.7 µM (inactive); in the experiment with Malme-3M, 25.4 µM (inactive); with SF-539 it was 31.8 µM (inactive); in the experiment with SF-268 it was 26.3 µM (inactive); with LOX IMVI, 31.3 µM (inactive); with HCT-15, 26.5 µM. For the same compound, the GI50 was 28.2 µM (inactive) in the experiment on 786-0; 20.7 µM (inactive) in the experiment with MDA-MB-231; 26.6 µM (inactive) in the experiment on MOLT-4; 21.7 µM (inactive) with NCI-H460; 47 µM (inactive) with UO-31; 36.9 µM (inactive) in the experiment with NCI-H23. Further, the GI50 in the experiment with U-251 is 31.5 µM (inactive); in the experiment on CAKI-1, 23.1 µM (inactive); with TK-10, 24.7 µM (inactive); in the experiment on SK-MEL-5, 14 µM (inactive); in the experiment with UACC-62, 17.8 µM (inactive); in the experiment on SNB-75, 41.2 µM (inactive).
Turning to `N#C/C(=C\c1ccccc1O)C(N)=O`, the GI50 with SN12C was > 100 µM (inactive); in the experiment with Malme-3M it was > 100 µM (inactive); in the experiment with SF-539, > 100 µM (inactive); in the experiment on SF-268, 81.7 µM (inactive); with LOX IMVI, > 100 µM (inactive); in the experiment with HCT-15, 87.7 µM. Besides, the GI50 in the experiment on 786-0 was > 100 µM (inactive); in the experiment on MOLT-4 it was 62.7 µM (inactive); in the experiment on NCI-H460, 55.7 µM (inactive); in the experiment with UO-31 it was 43.6 µM (inactive); in the experiment with NCI-H23, 82.4 µM (inactive); in the experiment on RXF 393 it was 25.7 µM (inactive). Also, the GI50 in the experiment with U-251 is > 100 µM (inactive); with CAKI-1 it was 54.8 µM (inactive); in the experiment with TK-10, > 100 µM (inactive); in the experiment with SK-MEL-5 it was > 100 µM (inactive); in the experiment with UACC-62 it was 50.1 µM (inactive); with SNB-75 it was 28.1 µM (inactive).
